Where no end group is shown, it is not given here.
Key:
HepG2-2.2.15 cells = assay: Cell viability in HepG2-2.2.15 cells (dye uptake); format: cell-based; conditions: test peptide 10 micrograms per ml, dye uptake assay
HIV-1IIIB = assay: HIV-1 antiviral assay (CPE reduction, MTS); format: cell-based; conditions: peptide 10 micrograms per ml, 6 days post-infection
CEM-SS cells = assay: Cytotoxicity in CEM-SS cells (MTS); conditions: peptide 10 micrograms per ml, MTS
MRC-5 cells = conditions: human, 6 days
Protocol: (§1) For cytotxicity testing, MRC-5 cells were seeded at 2,500 cells/well in 96 well plates using growth medium. […] The following day, peptide were added and tested in duplicates. After a 6 days incubation period, cell viability was measured using CellTiter 96 Solution (Promega). Plates were incubated for additional 4 hours at 37° C.

[1] = Cell viability in HepG2-2.2.15 cells (dye uptake); format: cell-based; conditions: human, HepG2-2.2.15 cells (stable line containing HBV ayw genome), test peptide 10 micrograms per ml, dye uptake assay
MRSA = assay: Methicillin Resistant Staphylococcus Aureus (MRSA) assay; format: cell-based; conditions: MRSA growth; peptide 10 micrograms per ml; read visually
Streptococcus pneumoniae = Streptococcus pneumoniae assay; format: cell-based; conditions: Streptococcus pneumoniae growth; peptide 10 micrograms per ml; read visually
Protocol: The antibacterial assay was conducted using clear, U-bottom 96-well microtiter plates. Cation-adjusted Mueller-Hinton Broth (MHB) was used for testing Streptococcus pneumoniae. The peptide of the invention (0.1 ml of each—10 micrograms per ml—) were dispensed into wells in duplicate. Then the wells were inoculated with 5×10^5 CFU/mL Streptococcus pneumoniae in 0.1 ml volume. For control purposes, each plate included 4 wells containing media without bacterial inoculum and 4 wells containing medium with inoculum but without peptide. The plates were incubated for 12 h at 37° C., and read visually 18-24 hours post-incubation. Growth control of Streptococcus pneumoniae was examined first to determine adequacy of media preparations and growth conditions. Acceptable growth is defined as ≧2 mm wide button of cells at the bottom of each sample well, or obvious turbidity in the culture supernatant. Test wells were examined and scored as positive/negative for activity. A positive score for activity is based on complete inhibition of macroscopic growth of the test Streptococcus pneumoniae.

Pseudomonas aeruginosa = Pseudomonas aeruginosa assay; format: cell-based; conditions: Pseudomonas aeruginosa growth; peptide 10 micrograms per ml; read visually
Protocol: The antibacterial assay was conducted using clear, U-bottom 96-well microtiter plates. Cation-adjusted Mueller-Hinton Broth (MHB) was used for testing Pseudomonas aeruginosa. The peptide of the invention (0.1 ml of each—10 micrograms per ml—) were dispensed into wells in duplicate. Then the wells were inoculated with 5×10^5 CFU/mL Pseudomonas aeruginosa in 0.1 ml volume. For control purposes, each plate included 4 wells containing media without bacterial inoculum and 4 wells containing medium with inoculum but without peptide. The plates were incubated for 12 h at 37° C., and read visually 18-24 hours post-incubation. Growth control of Pseudomonas aeruginosa was examined first to determine adequacy of media preparations and growth conditions. Acceptable growth is defined as ≧2 mm wide button of cells at the bottom of each sample well, or obvious turbidity in the culture supernatant. Test wells were examined and scored as positive/negative for activity. A positive score for activity is based on complete inhibition of macroscopic growth of the test Pseudomonas aeruginosa.

[2] = Cytotoxicity in MRC-5 cells (CellTiter 96); conditions: human, MRC-5 cells (embryonal lung fibroblasts)
Protocol: as §1

[3] = Cytotoxicity in CEM-SS cells (MTS); conditions: human

Nc1ccn([C@@H]2CS[C@H](CO)O2)c(=O)n1 [3TC, Lamivudine, reference compound]
% Cell Viability (HepG2-2.2.15 cells): 95.8%

Cc1cn([C@H]2C[C@H](N=[N+]=[N-])[C@@H](CO)O2)c(=O)[nH]c1=O [AZT, reference compound]
% CPE reduction in HIV-1 infected CEM-SS cells (HIV-1IIIB): 99%
% Cell Viability (CEM-SS cells): 97%

Nc1nc(O)c2ncn(COC(CO)CO)c2n1 [Ganciclovir]
% Cell Viability (MRC-5 cells): 100%

FFVAP [Phe-Phe-Val-Ala-Pro]
viability at 144 h, 10 micrograms per ml [1]: 98.1%
% inhibition (MRSA): 0.0%
% inhibition (Streptococcus pneumoniae): 0.0%
% inhibition (Pseudomonas aeruginosa): 0.0%
viability at 144 h [2]: 100%
viability at 10 micrograms per ml [3]: 100%
